Series [1] relates to inactivated yeast. In words: Encapsulation of bioactives into inactivated yeast cells (conventional diffusion, vacuum infusion, pressure). Format: physicochemical, Saccharomyces cerevisiae. The text has this:
Prior to encapsulation of bioactives, selected strains of both yeast and algal cells are inactivated with a chemical treatment. Chemical inactivation of yeast or algal cells stops the metabolic processes while preserving the structure and chemical composition of the cells. […] The concentration of ethanol is selected based on the results of the previous study. Briefly, 1 gm of yeast or algal cells pellet is suspended in the 35% ethanolic solution of the selected bioactive compound. […] We have determined the % ethanol to achieve sufficient encapsulation of the selected encapsulated bioactive compounds using both the vacuum and high pressure assisted encapsulation process. Yeast or algal cell samples suspended in the ethanolic solution with the bioactive compound are sealed in boilable vacuum bags (Prime Source) at 99% vacuum (Ultravac 250, Koch Equipment LLC). […] The sealed samples are covered with aluminum foil to prevent any photo-degradation of the bioactives and incubated at room temperature (25° C.) for 10 minutes. Samples are emptied into 50 mL centrifuge tubes, centrifuged at 2200 rpm for 10 minutes to pellet the cells and the pelleted cells are washed twice with ethanolic solution (35%) and then five times with excess water to remove unencapsulated bioactives. […] Samples are emptied into 50 mL centrifuge tubes, centrifuged to pellet the cells (2200 rpm for 10 minutes) and the pelleted cells are washed twice with ethanolic solution (35%) and then five times with excess water to remove unencapsulated bioactives. Briefly, yeast or algal samples in a 35% ethanolic solution of the selected bioactive compound are covered with a single layer of aluminum foil to prevent photolysis. Samples are then placed into a rotary incubator at 50° C. and 200 rpm for 24 hours. After removal from the incubator, cells are removed by centrifugation at 2000 rpm for 10 minutes. The supernatant is decanted to isolate the pelleted cells and the pelleted cells are washed as described above to remove unencapsulated bioactives. Cells are sonicated to disrupt the cellular structure. A methanol extraction is utilized to extract the encapsulated bioactives from the disrupted yeast or algal cells. 0.05 g of cells (wet basis) with encapsulated bioactives are sonicated to disrupt cellular structure and subsequently incubated with 1 mL methanol. Samples are then briefly vortexed and centrifuged at 14,000 rpm for 10 minutes. The concentration of bioactive compound dissolved in the organic phase is measured using UV-vis spectrophotometer. […] Measuring loading of these bioactive compounds in various emulsions and nanoparticles has been described. The encapsulation efficiency is determined as follows: [formula] where CE is the mass of extracted bioactive from the cells after encapsulation and CT is the amount of bioactive initially added to the cells. We have developed an innovative bioencapsulation process that provides rapid and efficient infusion of bioactives in isolated cells and lipid bodies. In this process, yeast or algal cells incubated in a solution containing bioactive were subjected to a vacuum (97% vacuum) or mild-high hydrostatic pressure (35-100 MPa) for ˜5-10 minutes. […] The results of these measurements were compared with the conventional process used for encapsulation of bioactive compounds in yeast cells.

The test system of series [2] is Chlorella minutissima. In words: Encapsulation of curcumin in algae cells using pressure assisted encapsulation. The class given is physicochemical. Particulars: vacuum sealing, 5% ethanol, 100 mg cells. The text has this:
(§1) Briefly, 1 gm of yeast or algal cells pellet is suspended in the 35% ethanolic solution of the selected bioactive compound. […] We have determined the % ethanol to achieve sufficient encapsulation of the selected encapsulated bioactive compounds using both the vacuum and high pressure assisted encapsulation process. Yeast or algal cell samples suspended in the ethanolic solution with the bioactive compound are sealed in boilable vacuum bags (Prime Source) at 99% vacuum (Ultravac 250, Koch Equipment LLC). […] The sealed samples are covered with aluminum foil to prevent any photo-degradation of the bioactives and incubated at room temperature (25° C.) for 10 minutes. Samples are emptied into 50 mL centrifuge tubes, centrifuged at 2200 rpm for 10 minutes to pellet the cells and the pelleted cells are washed twice with ethanolic solution (35%) and then five times with excess water to remove unencapsulated bioactives. Cells are sonicated to disrupt the cellular structure. […] The concentration of bioactive compound dissolved in the organic phase is measured using UV-vis spectrophotometer. […] The encapsulation efficiency is determined as follows: [formula] where CE is the mass of extracted bioactive from the cells after encapsulation and CT is the amount of bioactive initially added to the cells. […]

Series [3] has as its system Chlorella sorokiniana. The description is as above. Particulars: vacuum sealing, 5% ethanol, 50 mg cells. Format: physicochemical.
Description: as §1

Series [4] has as its system E. coli (BL21). In words: Encapsulation efficiency into bacteria by vacuum infusion. The class given is physicochemical. Particulars: vacuum infused, 35% ethanol.
In series [5] the test system is porcine mouth mucosa. In words: Curcumin release and diffusion in porcine mouth mucosa from yeast encapsulation system. How it is done:
Curcumin release and diffusion in porcine mouth mucosa from yeast encapsulation system was evaluated. Yeast microcapsules loaded with curcumin were topically applied on the porcine oral cavity tissue. After incubations for corresponding time periods, curcumin permeation was detected by imaging the tissue cross-sections. Both integrated pixel intensity and penetration distance from skin top surface were calculated. The results are depicted in FIG. 18. […] Furthermore, the yeast carriers can be engineered to act as a programmable microcarrier system that can provide controlled or triggered release of bioactive components in oral mucosa. This engineering can be accomplished by physical, chemical and/or genetic modification of the cell wall and cytoplasmic composition of yeast cells including modification of their lipid content.

Results on one compound are retold here after patent publication US10864168B2, “Bioactive delivery vehicles” (The Regents of the University of California, priority 2014, dated 2020).

With `COc1cc(/C=C/C(=O)CC(=O)/C=C/c2ccc(O)c(OC)c2)ccc1O` [Curcumin, curcumin], the “Mass of Encapsulated Bioactive in Yeast” value in series [1] (100 mM PBS, pH = 6.5, Conventional Diffusion, saturated solution, 35% v/v ethanol) stood at 0.064 mg/g; in series [1] (100 mM PBS, pH = 6.5, HPP (200 MPa), saturated solution, 35% v/v ethanol) it was 0.242 mg/g; in series [1] (100 mM PBS, pH = 6.5, Vacuum Infusion, saturated solution, 35% v/v ethanol), 0.305 mg/g; in series [1] (2% Tween 20 in 100 mM Tris Buffer, pH = 8, Conventional Diffusion, saturated solution, 35% v/v ethanol) it was 0.292 mg/g; in series [1] (2% Tween 20 in 100 mM Tris Buffer, pH = 8, HPP (200 MPa), saturated solution, 35% v/v ethanol), 0.415 mg/g; in series [1] (2% Tween 20 in 100 mM Tris Buffer, pH = 8, Vacuum Infusion, saturated solution, 35% v/v ethanol), 0.483 mg/g. The “Mass of Encapsulated Bioactive in Yeast” value in series [1] (Commercial Baker's Yeast, vacuum infused, 35% ethanol) is 0.392 mg/g; in series [1] (Conventional Diffusion, Single Loading), 0.134 mg/g; in series [1] (S. Cerevisiae (68-115), lipogenesis Induced, vacuum infused, 35% ethanol), 0.260 mg/g; in series [1] (S. Cerevisiae (68-115), lipogenesis Suppressed, vacuum infused, 35% ethanol), 0.238 mg/g; in series [1] (Vacuum, Dual Loading (curcumin and fisetin added together)), 0.442 mg/g. In addition, the “Mass of Encapsulated Bioactive in Algae” value in series [2] turned out to be 0.184 mg/g; in series [3] it was 0.355 mg/g. Also, in series [4], the “Mass of Encapsulated Bioactive in Bacteria” value is given as 0.489 mg/g. In addition, the “integrity of the compound in tissue” value in series [5] (after 12 h) is “remained intact”. In addition, the “diffusion into mouth mucosa tissue” value in series [5] (yeast microcapsules loaded with curcumin, topically applied) is reported as “diffused into mouth mucosa tissue with a strong time-dependent manner”.
